From article PMC5585923, “Isolation and characterization of the compounds responsible for the antimutagenic activity of Combretum microphyllum (Combretaceae) leaf extracts” (BMC Complementary and Alternative Medicine, 2017)
≈ marks a conversion by molar mass, not a printed value. Where two headings read alike, the source gives them in different places.

Tests used:
[1] = tested on: Salmonella typhimurium TA100; experiment: Ames test, mutagenicity, TA100
[2] = tested on: Salmonella typhimurium TA102; experiment: Ames test, antimutagenicity against MMC, TA102; details: for antimutagenic activity: TA102, against MMC
Protocol: (§3) Briefly, 100 μl of bacterial stock were incubated in 20 ml of Oxoid Nutrient broth for 16 h at 37 °C on a rotary shaker. Of this overnight culture, 0.1 ml was added to 2.0 ml of top agar (containing histidine-biotin) together with 0.1 ml test solution and 0.5 ml phosphate buffer. […] To determine antimutagenicity, the test solution contained 50 μl test sample and 50 μl positive control). The top agar mixture was poured over the surface of a minimal agar plate and incubated for 48 h at 37 °C. After incubation the numbers of revertant colonies (mutants) in each plate were counted.
(§4) Where T is the number of revertants per plate in the presence of mutagen and the test solution and M is the number of revertants per plate in the positive control. All cultures were prepared in triplicate (except for the solvent control where five replicates were used). Absence of toxicity was confirmed when a background layer of bacterial growth, which should normally be present was observed.

[3] = tested on: Salmonella typhimurium TA100; experiment: Ames test, antimutagenicity against 4-NQO, TA100; details: for antimutagenic activity: TA100, against 4-NQO
Protocol: as §3, §4

[4] = tested on: Salmonella typhimurium TA98; experiment: Ames test, mutagenicity, TA98
MTT cytotoxicity assay = format: cell-based; details: human; for viability at 2 days, 200 μg/ml: 200 μg/ml (highest concentration tested), read-out: percentage cell viability
Protocol: (§1) Briefly, the cells were maintained in minimal essential medium supplemented with 10% foetal calf serum and sodium pyruvate. Cell suspensions were prepared from confluent monolayer cultures and plated at a density of 5 × 10^4 cells/ml and a total of 200 μl of the cell suspension was plated in a 96-well culture plate. After incubation at 37 °C in a 5% CO2 incubator, the cells were treated with different concentrations of the isolated compounds ranging from 10 to 200 μg/ml and incubated for 2 days. Doxorubicin chloride was used as the positive control. The wells were washed with PBS and fresh medium (200 μl) was then added to the wells. MTT (Sigma) dissolved in PBS (30 μl) was added to each well and incubated for 4 h at 37 °C. The medium was removed and MTT formazan crystals were dissolved in 50 μl DMSO. The amount of MTT reduction was measured immediately by detecting the absorbance using a microplate reader (BioTek Synergy, Analytical and Diagnostic Products, South Africa) at a wavelength of 570 nm. The percentage of cell viability was calculated using the formula below: %cell viability=Mean Absorbance of sample/Mean Absorbance of control×100
(§2) The intensity of the MTT formazan produced by living metabolically active cells is directly proportional to the number of live cells present (Mosmann, [14]).

[5] = tested on: Salmonella typhimurium TA98; experiment: Ames test, antimutagenicity against 4-NQO, TA98; details: for antimutagenic activity: TA98, against 4-NQO
Protocol: as §3, §4

[6] = DPPH free radical scavenging (antioxidant) assay; details: tested 100 to 0.048 μg/ml
Protocol: The DPPH free radical scavenging spectrophotometric method described by Mensor et al. and modified by Aderogba et al. was used to evaluate the quantitative antioxidant activity. Reactions were carried out in 96-well microtitre plates and each of the isolated compounds was tested at varying concentrations ranging from 100 to 0.048 μg/ml. Blank solutions were prepared with methanol only while the negative control was DPPH solution (20 μl plus 50 μl methanol). Test sample solution contained compounds serially diluted in methanol. Methanol served as a blank for the microplate reader and the decrease in absorbance was measured at 515 nm. Percentage antioxidant activity (AA%) values were calculated from the absorbance values using the formula: AA%=100−Abssample–Absblank×100/Abscontrol
(Abs sample is the absorbance of the sample, Abs blank is the absorbance of the blank and Abs control is the absorbance of the control). L-ascorbic acid (vitamin C) was used as a positive control (antioxidant agent). The EC50 value, defined as the concentration of the sample leading to 50% reduction of the initial DPPH concentration, was calculated from the separate linear regression of plots of the mean percentage of the antioxidant activity against concentration of the test extracts obtained from the three replicate assays. The results are expressed as EC50 values obtained from the regression plots.

[7] = tested on: Dalton's lymphoma (DLA) cell line; parameters: method as in Ramesh and colleagues (2012); details: DLA cells, 100 μg/ml, ref Ramesh and colleagues (2012); cited from earlier work
[8] = parameters: method as in earlier work; details: 100 μg/ml, cell-free system, ref 22 Manna et al.; cited from earlier work
[9] = tested on: human hepatocellular carcinoma (C3A) cells; experiment: MTT cytotoxicity assay; format: cell-based; details: Homo sapiens; C3A cells, 200 μg/ml; read-out: inhibition of cell growth
Protocol: as §1, §2

[10] = tested on: Ehrlich ascites carcinoma (EAC) cell line; parameters: method as in Ramesh and colleagues (2012); details: EAC cells, 100 μg/ml, ref Ramesh and colleagues (2012); cited from earlier work
[11] = C3A hepatocellular carcinoma cells, C3A cells, MTT, 2 days, 10 to 200 μg/ml, read-out: LC50

Structure (SMILES)	Mean number of revertant colonies per plate (±SD) ([1]; TA100, 5 μg/ml)	Mean number of revertant colonies per plate (±SD) ([1]; TA100, 50 μg/ml)	Mean number of revertant colonies per plate (±SD) ([1]; TA100, 500 μg/ml)	antimutagenic activity [2]	antimutagenic activity [3]	Mean number of revertant colonies per plate (±SD) ([4]; TA98, 5 μg/ml)	Mean number of revertant colonies per plate (±SD) ([4]; TA98, 50 μg/ml)	Mean number of revertant colonies per plate (±SD) ([4]; TA98, 500 μg/ml)	CC50 at 2 days (MTT cytotoxicity assay; [11]) [µg/mL]	antimutagenic activity [5]	EC50, DPPH free radical scavenging [6] [µg/mL]	CC50 at 2 days (MTT cytotoxicity assay)	also measured
CCCCCCCCCCCCCCCCCCCCCCCCO [n-Tetracosanol, n-tetracosanol]	127.00 ± 7.21	121.33 ± 2.52	125.00 ± 8.18	least active compound	least active compound	23.67 ± 4.51	35.67 ± 9.71	30.00 ± 7.81	> 200	least active compound	>100	–	viability at 2 days, 200 μg/ml (MTT cytotoxicity assay; C3A hepatocellular carcinoma cells, C3A cells): 59.7 ± 7.23%
COc1cccc2c1C(=O)c1c(O)c3c(c(O)c1C2=O)C[C@@](O)(C(=O)CO)C[C@@H]3O[C@H]1C[C@H](N)[C@H](O)[C@H](C)O1 [Doxorubicin, Doxorubicin chloride, reference compound]	–	–	–	–	–	–	–	–	–	–	–	640 ± 32 nM	–
CCCCCCCCCCCCCCCCCCCC(=O)O [Eicosanoic acid, eicosanoic acid]	112.33 ± 2.89	102.67 ± 4.73	108.67 ± 5.03	–	–	28.67 ± 5.51	29.33 ± 4.04	27.77 ± 1.53	–	–	>100	> 200 µg/mL	viability at 2 days, 200 μg/ml (MTT cytotoxicity assay; C3A cells): 50.1 ± 6.21%
O=C1O[C@H]([C@@H](O)CO)C(O)=C1O [Ascorbic acid, L-ascorbic acid, reference compound]	–	–	–	–	–	–	–	–	–	–	0.51 ± 0.08 (≈ 2.9 µM)	–	–
CC1(C)CC[C@]2(C(=O)O)CC[C@]3(C)C(=CC[C@@H]4[C@@]5(C)C[C@@H](O)[C@H](O)[C@@](C)(CO)[C@@H]5CC[C@]43C)[C@@H]2C1 [Arjunolic acid, arjunolic acid]	107.33 ± 1.15	104.33 ± 2.52	109.00 ± 8.72	most active	most active	26.67 ± 1.15	28.33 ± 3.78	33.00 ± 2.65	106 ± 5.11	most active	6.25 ± 0.29 (≈ 12.8 µM)	–	inhibition of cell growth [7]: up to 70%; inhibition at 500 µg/mL ([2]; Salmonella enterica, TYPHIMURIUM, read-out: percentage antimutagenicity (inhibition of mutagenic effect of MMC), TA102, 500 μg/ml (highest concentration tested), MMC 1 μg/ml): 44 ± 0.18%; percentage antimutagenicity (inhibition of mutagenic effect of MMC) ([2]; TA102, 500 μg/ml (highest concentration tested), MMC 1 μg/ml): ≤ 43.78 ± 0.18%; DPPH free radical scavenging activity [8]: up to 80%; inhibition at 500 µg/mL ([3]; Salmonella enterica, TYPHIMURIUM, read-out: percentage antimutagenicity (inhibition of mutagenic effect of 4-NQO), TA100, 500 μg/ml (highest concentration tested), 4-NQO 1 μg/ml): 36 ± 1.5%; percentage antimutagenicity (inhibition of mutagenic effect of 4-NQO) ([3]; TA100, 500 μg/ml (highest concentration tested), 4-NQO 1 μg/ml): ≤ 35.84 ± 1.45%; inhibition at 200 µg/mL [9]: 66%; inhibition at 500 µg/mL ([5]; Salmonella enterica, TYPHIMURIUM, read-out: percentage antimutagenicity (inhibition of mutagenic effect of 4-NQO), TA98, 500 μg/ml (highest concentration tested), 4-NQO 2 μg/ml): 42 ± 9.6%; inhibition of cell growth [10]: up to 70%
